Reference: PubChem BioAssay AID1963438 (Molecular Pharmacology Branch, DTP, NCI, 2024)
pIC50: −log10 of the molar value. Where “and” joins values, the source holds several entries; their conditions need not be identical. Identical values can stand only once.

System: NCI-H510 multicellular tumor spheroid growth, % test/control
Assay: Anticancer human tumor NCI-H510 cell line growth inhibition [Asc];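 further: spheroids exposed to agents for 7 days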;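 on viability, T/C: 100% = DMSO vehicle control wells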
Details: for viability, T/C: stronger effect = lower value; active means viability on the fitted dose curve at most 10% of control; inactive means the rest
Protocol: Multicellular complex tumor spheroid response to apoptosis pathway targeting inhibitors Alrizomadlin, Pelcitoclax, and Dasminapant in combination with a variety of drugs and investigational agents in selected tumor cell lines
The MDM2 inhibitor alrizomadlin, the Bcl-2/Bcl-xL inhibitor pelcitoclax, and the IAPs inhibitor dasminapant were evaluated both individually and in combination with standard of care and investigational anticancer small molecules within a complex spheroid model of solid tumors. . Complex spheroids include a stromal component modeled by human endothelial cells (HUVEC) and fibroblasts modeled by human mesenchymal stem cells (MSCs). The concentration ranges selected for each drug and investigational agent were based upon clinically achievable concentrations if the clinical Cmax of the agent was known.
Compounds. The drugs and investigational agents: alrizomadlin (APG-115; NSC831270), pelcitoclax (APG-1252; NSC835773), dasminapant (APG-1387;NSC834197), TAK-243 (NSC785004), copanlisib (NSC809693), olaparib (NSC753686), talazoparib (NSC767125), cobimetinib (NSC 768068), eltanexor (KPT-8602, NSC 794443), abemaciclib (NSC 768073), sotorasib (NSC818433), adagrasib (NSC 831453), MRTX-1133 (NSC 836407), Iadademestat (ORY1001, NSC 806812), and RMC-4630 (NSC839698), were obtained from the NCI Developmental Therapeutics Program Chemical Repository. The FDA-approved anticancer drug set is available from the Developmental Therapeutics Program at https://dtp.cancer.gov/organization/dscb/obtaining/available plates.htm. […] The stock solutions were prepared in dimethyl sulfoxide (DMSO, Sigma-Aldrich, St. Louis, MO, cat. D2650) at 800-fold the tested concentration and stored at -70 degrees C prior to their use. All drugs and investigational agents were tested over a range starting from a high concentration at or near the clinical Cmax and decreasing in half-log increments. If the clinical Cmax for an agent had not been determined, the highest concentration tested was 10 microM.
The patient-derived cancer (PDC) cell lines include five colon adenocarcinomas: 186277-243-T-J2-PDC, 616215-338-R-J1-PDC, 439559-082-T-J2-PDC, 463943-066-T-J2-PDC, and 519858-162-T-J1-PDC; three pancreatic carcinomas: 323965-272-R-J2-PDC, 521955-158-R6-J3-PDC, and 521955-158-R2-J5-PDC; two uterine sarcomas: 327498-152-R-J2-PDC and 993429-296-R-J1-PDC; two rhabdomyosarcomas: 755483-174-R-J1-PDC and 772245-204-R-J1-PDC; two soft tissue sarcomas: 126254-015-R-J1-PDC and 494315-158-R-J1-PDC; two malignant fibrous histiocytomas: 317291-083-R-J1-PDC and 596521-263-R-J1-PDC; two breast carcinomas: 171881-019-R-J1-PDC and 885512-296-R-J2-PDC; and one ovarian carcinoma: 6556581-035-R-J-PDC were obtained from the NCI PDMR, (https://pdmr.cancer.gov). The established cell lines HSSY-2 synovial sarcoma (RRID:CVCL 8719), SYO-1 synovial sarcoma (RRID:CVCL_7146), MPNST malignant peripheral neural sheath tumor were obtained from the Sloan Kettering Institute. The following established cell lines were purchased from the American Type Culture Collection (ATCC, Manassas, VA), Sor the received from the NCI repository:, PANC-1 pancreatic carcinoma (CRL-1469, RRID:CVCL_0480), OVCAR-5 ovarian carcinoma (RRID:CVCL_1628), OVCAR-8 ovarian carcinoma (RRID:CVCL_1629), , MCF-7 breast carcinoma (CRL-12584, RRID:CVCL_0031), MDA-MB-231 breast carcinoma (CRL-12532, RRID:CVCL_0062), NCI-H1876 small cell lung carcinoma (CRL-5902, RRID:CVCL_1503), NCI-H510A small cell lung carcinoma (HTB-184, RRID:CVCL_1565), NCI-H1417 (CRL-5869, RRID:CVCL_1469), and NCI-H196 small cell lung carcinoma (CRL-5823, RRID:CVCL_1509). Dr. Peter Houghton (Greehey Children's Cancer Research Institute, University of Texas Health Science Center, San Antonio, TX) provided Rh-18 rhabdomyosarcoma (RRID:CVCL_1659). Pooled donor human umbilical vein endothelial cells (HUVEC, Lonza, cat. CC-2519) and human mesenchymal stem cells (hMSC, Lonza, cat. PT-2501) were purchased from Lonza (Walkersville, MD).
Cell Culture. […]

Cc1nc(N2CCC3(CC2)COC(C)C3N)c(CO)nc1Sc1ccnc(N)c1Cl (configuration not stated) + Cc1c(S(C)(=O)=O)c(-c2cc(F)cc(N3CCN(c4ccc(NS(=O)(=O)c5ccc(NC(CCN6CCC(C(=O)OCCCP(=O)(O)O)CC6)CSc6ccccc6)c(S(=O)(=O)C(F)(F)F)c5)cc4)CC3)c2)c(-c2ccc(Cl)cc2)n1C(C)C
inactive: viability, T/C (second compound 0.1 µM, first compound 0.00949 µM) 126% | viability, T/C (second compound 0.1 µM, first compound 0.03 µM) 122% | viability, T/C (second compound 0.1 µM, first compound 0.0949 µM) 112% | viability, T/C (second compound 0.1 µM, first compound 0.3 µM) 111% | viability, T/C (second compound 0.1 µM, first compound 0.949 µM) 128% | viability, T/C (second compound 0.1 µM, first compound 3 µM) 117% | viability, T/C (second compound 0.316 µM, first compound 0.00949 µM) 125% | viability, T/C (second compound 0.316 µM, first compound 0.03 µM) 130% | viability, T/C (second compound 0.316 µM, first compound 0.0949 µM) 136% | viability, T/C (second compound 0.316 µM, first compound 0.3 µM) 127% | viability, T/C (second compound 0.316 µM, first compound 0.949 µM) 111% | viability, T/C (second compound 0.316 µM, first compound 3 µM) 132% | viability, T/C (second compound 1 µM, first compound 0.00949 µM) 92.8% | viability, T/C (second compound 1 µM, first compound 0.03 µM) 139% | viability, T/C (second compound 1 µM, first compound 0.0949 µM) 122% | viability, T/C (second compound 1 µM, first compound 0.3 µM) 102% | viability, T/C (second compound 1 µM, first compound 0.949 µM) 118% | viability, T/C (second compound 1 µM, first compound 3 µM) 130% | viability, T/C (second compound 3.16 µM, first compound 0.00949 µM) 132% | viability, T/C (second compound 3.16 µM, first compound 0.03 µM) 128% | viability, T/C (second compound 3.16 µM, first compound 0.0949 µM) 137% | viability, T/C (second compound 3.16 µM, first compound 0.3 µM) 123% | viability, T/C (second compound 3.16 µM, first compound 0.949 µM) 119% | viability, T/C (second compound 3.16 µM, first compound 3 µM) 118% | viability, T/C (second compound 10 µM, first compound 0.00949 µM) 133% | viability, T/C (second compound 10 µM, first compound 0.03 µM) 123% | viability, T/C (second compound 10 µM, first compound 0.0949 µM) 125% | viability, T/C (second compound 10 µM, first compound 0.3 µM) 94% | viability, T/C (second compound 10 µM, first compound 0.949 µM) 114% | viability, T/C (second compound 10 µM, first compound 3 µM) 95.2%
< 5.52: pIC50 (curve of first compound, second compound 0.1 µM) | pIC50 (curve of first compound, second compound 0.316 µM) | pIC50 (curve of first compound, second compound 1 µM) | pIC50 (curve of first compound, second compound 3.16 µM) | pIC50 (curve of first compound, second compound 10 µM)

Cc1nc(N2CCC3(CC2)COC(C)C3N)c(CO)nc1Sc1ccnc(N)c1Cl (configuration not stated)
< 5.52: pIC50 (curve of compound)
inactive: viability, T/C (compound 0.00949 µM) 103% and 93.2% and 86.2% | viability, T/C (compound 0.03 µM) 101% and 121% and 91% | viability, T/C (compound 0.0949 µM) 103% and 109% and 98.7% | viability, T/C (compound 0.3 µM) 99% and 118% and 99.2% | viability, T/C (compound 0.949 µM) 96.9% and 107% and 96.8% | viability, T/C (compound 3 µM) 100% and 106% and 80.6%

NC(=O)C(=Cn1cnc(-c2cc(C(F)(F)F)cc(C(F)(F)F)c2)n1)c1cncnc1 + CCN1C(C(=O)NC23CCC(C(=O)O)(CC2)CC3)C(c2cccc(Cl)c2F)C2(C(=O)Nc3cc(Cl)ccc32)C12CCCCC2
7.27: pIC50 (curve of first compound, second compound 3 µM)
6.78: pIC50 (curve of first compound, second compound 0.03 µM)
inactive: viability, T/C (second compound 0.03 µM, first compound 0.000949 µM) 113% | viability, T/C (second compound 0.03 µM, first compound 0.003 µM) 89.3% | viability, T/C (second compound 0.03 µM, first compound 0.00949 µM) 84.8% | viability, T/C (second compound 0.03 µM, first compound 0.03 µM) 106% | viability, T/C (second compound 0.03 µM, first compound 0.0949 µM) 56.9% | viability, T/C (second compound 0.03 µM, first compound 0.3 µM) 42.4% | viability, T/C (second compound 0.0949 µM, first compound 0.000949 µM) 88.4% | viability, T/C (second compound 0.0949 µM, first compound 0.003 µM) 121% | viability, T/C (second compound 0.0949 µM, first compound 0.00949 µM) 89.2% | viability, T/C (second compound 0.0949 µM, first compound 0.03 µM) 95.1% | viability, T/C (second compound 0.0949 µM, first compound 0.0949 µM) 65% | viability, T/C (second compound 0.0949 µM, first compound 0.3 µM) 38.6% | viability, T/C (second compound 0.3 µM, first compound 0.000949 µM) 80.7% | viability, T/C (second compound 0.3 µM, first compound 0.003 µM) 94.9% | viability, T/C (second compound 0.3 µM, first compound 0.00949 µM) 93.9% | viability, T/C (second compound 0.3 µM, first compound 0.03 µM) 87.3% | viability, T/C (second compound 0.3 µM, first compound 0.0949 µM) 58.4% | viability, T/C (second compound 0.3 µM, first compound 0.3 µM) 32.4% | viability, T/C (second compound 0.949 µM, first compound 0.000949 µM) 106% | viability, T/C (second compound 0.949 µM, first compound 0.003 µM) 87.1% | viability, T/C (second compound 0.949 µM, first compound 0.00949 µM) 99.3% | viability, T/C (second compound 0.949 µM, first compound 0.03 µM) 79.9% | viability, T/C (second compound 0.949 µM, first compound 0.0949 µM) 93.5% | viability, T/C (second compound 0.949 µM, first compound 0.3 µM) 15.3% | viability, T/C (second compound 3 µM, first compound 0.000949 µM) 90.1% | viability, T/C (second compound 3 µM, first compound 0.003 µM) 106% | viability, T/C (second compound 3 µM, first compound 0.00949 µM) 108% | viability, T/C (second compound 3 µM, first compound 0.03 µM) 84% | viability, T/C (second compound 3 µM, first compound 0.0949 µM) 18.3% | viability, T/C (second compound 3 µM, first compound 0.3 µM) 14.9%
6.74: pIC50 (curve of first compound, second compound 0.0949 µM) | pIC50 (curve of first compound, second compound 0.949 µM)
6.86: pIC50 (curve of first compound, second compound 0.3 µM)
